Consider 6 molecules from patent publication US4663438A, “Novel nucleic acid-containing glycoprotein” (Kureha Kagaku Kogyo Kabushiki Kaisha, priority 1981, dated 1987).

Molecules are shown by their SMILES.

The subject of the assay is sarcoma-180 cells. Put plainly: Inhibition by monosaccharide of agglutination of sarcoma-180 cells due to the present substance. The class given is cell-based, mouse. To be noted: present substance 3 mg with monosaccharide 1.5 mg, 30 min, 37° C.; blank test 18.
Procedure: (ii) Test on the inhibition by monosaccharide of agglutination of sarcoma-180 cells due to the present substance
The same specimen of sarcoma-180 cells suspending in 0.5 ml of Hanks' solution at a rate of 1×10^6 cells/ml as in Test (i) and each 0.5 ml of the physiological saline solution containing 3 mg of the present substance and 1.5 mg of the respective monosaccharides set forth below, which was incubated for 30 min. at 37° C., then discarding the supernatant medium and washing the residue with Hanks' solution, the remaining residue was examined under a microscope to count the number of agglutinated lumps of the cells.
With `C[C@H](O)[C@@H](O)[C@@H](O)[C@H](O)C=O` [L-fucose], the “Number of agglutinated lumps” value is listed as 27.

Regarding `CC(=O)N[C@@H]1[C@@H](O)[C@H](O)[C@@H](CO)O[C@H]1O` [N--acetylglucosamine], the “Number of agglutinated lumps” value is listed as 85.

For the molecule `O=C[C@H](O)[C@@H](O)[C@@H](O)[C@H](O)CO` [D-galactose], the “Number of agglutinated lumps” value is given as 118.

On to `C[C@H](O)[C@H](O)[C@@H](O)[C@@H](O)C=O` [L-rhamnose], for which the “Number of agglutinated lumps” value came out at 25.

Regarding `CO[C@H]1O[C@H](CO)[C@@H](O)[C@H](O)[C@H]1O` [methyl α-glucoside], the “Number of agglutinated lumps” value came out at 115.

Regarding `COC1OC(CO)C(O)C(O)C1O` (stereo not drawn) [methyl α-mannoside], the “Number of agglutinated lumps” value came out at 35.
